Measured values reported in ChEMBL document CHEMBL1150948, “Tolyporphins J and K, two further porphinoid metabolites from the cyanobacterium Tolypothrix nodosa” (J Nat Prod, 1998).
Calls of active or inactive are those of the source. The calls are words filed in the database; no cut-off is given here.

Legend:
[1] = test system: NCI/ADR-RES; test: Cytotoxicity against human MCF7/ADR cells for 60 mins by trypan blue staining; type: functional, cell-based
[2] = target: ATP-dependent translocase ABCB1 (Homo sapiens, UniProt P08183); test: Inhibition of P-glycoprotein in human MCF7/ADR cells assessed as increase in [3H]vinblastine accumulation; type: cell-based; conditions: nci/adr-res
[3] = test system: NCI/ADR-RES; test: Reversal of P-glycoprotein-mediated multidrug resistance in human MCF7/ADR cells assessed as sensitization to actinomycin D after 48 hrs by SRB assay; type: cell-based

ATP-dependent translocase ABCB1, sequence (P08183 whole entry): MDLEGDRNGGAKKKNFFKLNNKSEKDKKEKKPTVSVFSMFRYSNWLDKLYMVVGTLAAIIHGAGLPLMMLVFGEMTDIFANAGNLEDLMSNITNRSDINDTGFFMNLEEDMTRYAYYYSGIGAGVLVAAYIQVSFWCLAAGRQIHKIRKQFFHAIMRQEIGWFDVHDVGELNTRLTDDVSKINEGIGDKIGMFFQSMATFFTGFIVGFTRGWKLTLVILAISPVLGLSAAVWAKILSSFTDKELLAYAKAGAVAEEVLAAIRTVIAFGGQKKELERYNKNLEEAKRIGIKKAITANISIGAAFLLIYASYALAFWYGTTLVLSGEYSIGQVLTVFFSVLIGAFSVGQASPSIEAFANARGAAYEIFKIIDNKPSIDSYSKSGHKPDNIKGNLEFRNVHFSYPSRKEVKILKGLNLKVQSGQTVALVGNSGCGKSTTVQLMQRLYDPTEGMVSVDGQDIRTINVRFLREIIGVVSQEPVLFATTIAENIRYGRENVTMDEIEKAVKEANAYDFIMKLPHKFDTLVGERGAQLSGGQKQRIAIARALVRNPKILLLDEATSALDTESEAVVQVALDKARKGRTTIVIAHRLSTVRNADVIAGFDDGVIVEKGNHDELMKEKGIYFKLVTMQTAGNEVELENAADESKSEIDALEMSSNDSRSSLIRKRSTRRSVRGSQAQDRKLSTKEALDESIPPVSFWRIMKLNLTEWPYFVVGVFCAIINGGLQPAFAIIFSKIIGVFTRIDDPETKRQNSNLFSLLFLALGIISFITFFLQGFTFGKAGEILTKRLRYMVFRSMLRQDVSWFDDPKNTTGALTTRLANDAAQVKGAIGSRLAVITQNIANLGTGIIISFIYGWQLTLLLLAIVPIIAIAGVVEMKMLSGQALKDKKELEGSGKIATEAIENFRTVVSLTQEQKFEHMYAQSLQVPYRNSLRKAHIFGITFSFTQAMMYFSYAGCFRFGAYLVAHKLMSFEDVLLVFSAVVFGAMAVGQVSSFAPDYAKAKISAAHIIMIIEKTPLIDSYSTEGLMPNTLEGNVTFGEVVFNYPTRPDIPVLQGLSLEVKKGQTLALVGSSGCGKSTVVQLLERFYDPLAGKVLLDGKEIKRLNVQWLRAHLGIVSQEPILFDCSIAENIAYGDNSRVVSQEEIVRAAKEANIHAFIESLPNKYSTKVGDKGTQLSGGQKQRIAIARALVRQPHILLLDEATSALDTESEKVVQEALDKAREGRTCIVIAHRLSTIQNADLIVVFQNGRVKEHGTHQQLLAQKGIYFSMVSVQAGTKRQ

| Activity [2] | Structure (SMILES) | Activity [1] | Activity [3] |
| --- | --- | --- | --- |
| Dose-dependent effect | Cc1cc2cc3nc(cc4cc(C)c(cc5nc(cc1[nH]2)C(=O)C5(C)O)[nH]4)C(=O)C3(C)O (stereo unspecified) [TOLYPORPHIN J] | inactive | Active |
| Dose-dependent effect | CC(=O)O[C@@H]1C[C@@H](O)[C@@H](C)OC1[C@]1(C)C(=O)c2cc3cc(C)c(cc4nc(cc5[nH]c(cc1n2)cc5C)C(=O)[C@@]4(C)C1O[C@H](C)[C@H](O)C[C@H]1OC(C)=O)[nH]3 (stereo partly specified) [TOLYPORPHIN A] | inactive | Active |
